Counter-ions that a name gives are not always drawn.
Target: IRAK4 (Homo sapiens (Human), UniProt Q9NWZ3)
Test: IRAK4 Kinase Assay (IMAP fluorescence polarization)
Assay type: biochemical
Details: 0.5 nM GST tagged IRAK4, 100 μM ATP, 30 minutes at 25° C., IMAP FP
Method in brief: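 GST-tagged IRAK4 (0.5 nM) phosphorylated 100 nM fluorescent peptide RP7030 with 100 μM ATP in 10 mM Tris-HCl pH 7.2, MgCl2, DTT and Tween 20 for 30 min at 25 °C. Phosphorylation was read as the increase in fluorescence polarization after binding to IMAP nanoparticles.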

Sequence of IRAK4 (Q9NWZ3 whole entry): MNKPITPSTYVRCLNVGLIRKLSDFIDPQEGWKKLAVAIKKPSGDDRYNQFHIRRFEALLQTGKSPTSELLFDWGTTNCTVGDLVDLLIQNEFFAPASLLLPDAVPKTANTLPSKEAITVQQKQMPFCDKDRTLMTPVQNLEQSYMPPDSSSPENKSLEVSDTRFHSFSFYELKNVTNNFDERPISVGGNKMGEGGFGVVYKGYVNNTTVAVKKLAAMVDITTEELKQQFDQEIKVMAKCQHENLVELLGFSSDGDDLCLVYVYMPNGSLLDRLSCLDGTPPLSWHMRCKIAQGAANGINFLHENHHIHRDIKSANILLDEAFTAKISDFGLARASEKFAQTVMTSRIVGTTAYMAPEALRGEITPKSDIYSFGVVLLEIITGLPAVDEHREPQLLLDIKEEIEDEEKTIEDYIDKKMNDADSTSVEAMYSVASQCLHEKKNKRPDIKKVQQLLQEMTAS

SMILES | IC50 [nM]
CC(C)n1cc(NC(=O)c2ccc3ccc(N[C@@H]4CCCC[C@@H]4O)nn23)c(C(F)F)n1 [Example 55, N-[3-(difluoromethyl)-1-(1-methylethyl)-1H-pyrazol-4-yl]-2-{[(1R,2S)-2-hydroxycyclohexyl]amino}pyrrolo[1,2-b]pyridazine-7-carboxamide trifluoroacetate] | 53
O=C(Nc1cscc1Cl)c1ccc2ccc(N3C[C@@H]4CC[C@H]3CN4)nn12 (single isomer, unassigned) [Example 83, N-(4-chlorothiophen-3-yl)-2-[(1S,4S)- or (1R,4R)-2,5-diazabicyclo[2.2.2]oct-2-yl]pyrrolo[1,2-b]pyridazine-7-carboxamide trifluoroacetate] | 188
Cn1cc(NC(=O)c2ccc3ccc(N[C@@H]4CCCCNC4)nn23)c(C(F)F)n1 (single isomer, unassigned) [Example 41, 2-[(3R)- or (3S)-azepan-3-ylamino]-N-[3-(difluoromethyl)-1-methyl-1H-pyrazol-4-yl]pyrrolo[1,2-b]pyridazine-7-carboxamide trifluoroacetate] | 0.2
Cn1cc(NC(=O)c2ccc3ccc(N4C[C@@H]5CC[C@H]4CN5)nn23)c(C#N)n1 (single isomer, unassigned) [Example 43, N-(3-cyano-1-methyl-1H-pyrazol-4-yl)-2-[(1S,4S)- or (1R,4R)-2,5-diazabicyclo[2.2.2]oct-2-yl]pyrrolo[1,2-b]pyridazine-7-carboxamide trifluoroacetate] | 25
